# Laboratory results taken from article PMC6624297 (Cell Death & Disease, 2019).
# Key:
# [1] = HPLC analysis of stability in cell culture medium; type: physicochemical
# Method: The HPLC system consisted of e2695 Separations Module pump coupled to a 2489 UV/Visible detector (Waters Corp., Milford, MA, USA). Chromatograms was achieved on a Waters BDS C18 column (200 mm × 4.6 mm, 5 um). Detection was performed at a wavelength of 260 nm at 37 °C. The mobile phase consisted of 0.1% phosphoric acid water /methanol (50/50, v/v) at a flow rate of 1.0 mL/min. A10 µL of sample was injected. The results are loaded in the supplemental file.
# [2] = target: BRaf kinase (Homo sapiens, UniProt P15056); assay: ADP-Glo kinase assay, BRaf; type: biochemical; settings: averages from triplicate assays
# Chain of BRaf kinase (P15056 whole entry): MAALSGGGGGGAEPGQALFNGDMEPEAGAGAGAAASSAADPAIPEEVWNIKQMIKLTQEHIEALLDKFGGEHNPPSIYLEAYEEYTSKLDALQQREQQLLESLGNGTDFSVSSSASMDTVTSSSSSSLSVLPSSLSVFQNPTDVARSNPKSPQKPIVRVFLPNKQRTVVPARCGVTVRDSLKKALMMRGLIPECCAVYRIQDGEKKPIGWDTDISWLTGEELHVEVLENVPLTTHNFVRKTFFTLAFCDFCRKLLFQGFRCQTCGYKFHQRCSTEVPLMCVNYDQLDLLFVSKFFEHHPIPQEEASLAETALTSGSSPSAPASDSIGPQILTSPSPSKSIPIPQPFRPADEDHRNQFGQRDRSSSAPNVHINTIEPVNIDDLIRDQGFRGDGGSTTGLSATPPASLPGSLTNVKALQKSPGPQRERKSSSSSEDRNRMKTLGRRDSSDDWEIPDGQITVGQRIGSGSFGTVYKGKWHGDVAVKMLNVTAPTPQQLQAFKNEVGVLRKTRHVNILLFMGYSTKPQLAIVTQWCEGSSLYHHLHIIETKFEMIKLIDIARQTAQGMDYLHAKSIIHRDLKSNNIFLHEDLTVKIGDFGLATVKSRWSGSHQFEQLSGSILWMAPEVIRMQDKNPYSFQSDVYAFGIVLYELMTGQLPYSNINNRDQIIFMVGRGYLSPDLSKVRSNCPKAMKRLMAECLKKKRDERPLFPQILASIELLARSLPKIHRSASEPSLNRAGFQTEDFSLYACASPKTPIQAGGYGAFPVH
# Method: (§1) The ADP-Glo™ kinase assay (Promega, Madison, WI) was used to screen target compounds for their inhibition effects for BRaf, EGFR kinase. The kinase assay was carried out in a 96-well plate, in a volume of 25 μL HEPES (pH 7.3) solvent containing 1.6 μg/mL EGF, and 20 ng of EGFR kinase, or 50 ng BRaf kinase, and 10 μM ATP (Promega, Madison, WI). […] Reactions in each well were started immediately by adding ATP and kept going for half an hour under 30 °C in a constant temperature incubator (Bluepard, Shanghai, China). After the plate cooled for 5 min at room temperature, 25 μl of ADP-Glo reagent was added into each well to stop the reaction and consume the remaining […] within 40 min. At the end, 50 μl of kinase detection reagent was added into the well and incubated for 1 h to produce a luminescence signal.
# [3] = tested on: MDA-MB-231 cells; assay: MTT assay MDA-MB-231; type: cell-based; settings: Homo sapiens, 24h of treatment, mean ± SD
# Method: (§2) Details are given in Supplementary Materials and Methods. Using probability unit and weighted regression method to calculate the IC50 value of compounds.
# (§3) Total cells in the logarithmic growth phase were collected, digested using 0.25% pancreatic enzymes, and then diluted into single-cell suspensions using phosphate-buffered solution (PBS). These cells were seeded into 96-well plates at 4× 10^3-5× 10^3 cells per well (100 µL per well) and then A549, H460, OVCAR-3, SGC7901, MDA-MB-231, HCT116 and HepG2 were cultured at 37°Cin an incubator containing 5% CO2. After cell complete attachment, 100 µL of different concentrations of compounds (0.625 μM, 1.25 μM, 2.5μM, 5 μM, 10 μM) were added to the cells after the nutrient solution in each well was discarded, while no compound except 0.1% DMSO was added to cells in the control group; at the same time, each concentration was set up to 5 wells. In addition, 5 wells in each 96-well plate only received 100 µL of nutrient solution as a blank control. The plates were taken out after the cells were incubated with compounds for 24 h, and 20 µL of MTT solution (5 mg/mL) (Wuhan Boster Biotechnology Limited Company, Wuhan, China; item No. AR1156) was added into all the wells. After another time of incubation for 4 h at 37 °C, the nutrient solution in each well was discarded slowly, and 150 µL of DMSO was added to each well. The plates were shaken on a shaking table for 20 min. When the crystals were fully dissolved, the blank wells were used to zero the plate reader. The optical density (OD) of each well was detected at 490 nm. The IC50 value was determined as the concentration of the inhibitor that caused 50% inhibition. Using probability unit and weighted regression method to calculate the IC50 value of compounds.
# [4] = tested on: A549 cells; assay: Cell cycle PI staining FACS, A549; type: cell-based, human; settings: A549, 0.5, 1.0, 1.5 μM, 24 h
# Text: (§4) TS is a crucial enzyme in the DNA synthesis stage. When it is inhibited, first to show cell cycle arrest at G1/S phase. […] Flow cytometry show (Fig. 3), as the concentration of the compound increases, the cells in the G0/G1 phase increase, the cells in the S phase and the G2/M phase decrease. Eventually, the proliferation of cancer cells was inhibited by the G1/S phase arrest of the compound L14e.
# [5] = tested on: H460 cells; assay: Cell cycle PI staining FACS, H460; type: cell-based, human; settings: H460, 0.5, 1.0, 1.5 μM, 24 h
# Text: as §4
# [6] = tested on: HPAEpiC cell line; assay: Selectivity index against HPAEpiC; type: cell-based; settings: SI = CC50/IC50
# [7] = target: EGFR kinase (Homo sapiens, UniProt P00533); assay: ADP-Glo kinase assay, EGFR; type: biochemical; settings: averages from triplicate assays
# Chain of EGFR kinase (P00533 25-1210): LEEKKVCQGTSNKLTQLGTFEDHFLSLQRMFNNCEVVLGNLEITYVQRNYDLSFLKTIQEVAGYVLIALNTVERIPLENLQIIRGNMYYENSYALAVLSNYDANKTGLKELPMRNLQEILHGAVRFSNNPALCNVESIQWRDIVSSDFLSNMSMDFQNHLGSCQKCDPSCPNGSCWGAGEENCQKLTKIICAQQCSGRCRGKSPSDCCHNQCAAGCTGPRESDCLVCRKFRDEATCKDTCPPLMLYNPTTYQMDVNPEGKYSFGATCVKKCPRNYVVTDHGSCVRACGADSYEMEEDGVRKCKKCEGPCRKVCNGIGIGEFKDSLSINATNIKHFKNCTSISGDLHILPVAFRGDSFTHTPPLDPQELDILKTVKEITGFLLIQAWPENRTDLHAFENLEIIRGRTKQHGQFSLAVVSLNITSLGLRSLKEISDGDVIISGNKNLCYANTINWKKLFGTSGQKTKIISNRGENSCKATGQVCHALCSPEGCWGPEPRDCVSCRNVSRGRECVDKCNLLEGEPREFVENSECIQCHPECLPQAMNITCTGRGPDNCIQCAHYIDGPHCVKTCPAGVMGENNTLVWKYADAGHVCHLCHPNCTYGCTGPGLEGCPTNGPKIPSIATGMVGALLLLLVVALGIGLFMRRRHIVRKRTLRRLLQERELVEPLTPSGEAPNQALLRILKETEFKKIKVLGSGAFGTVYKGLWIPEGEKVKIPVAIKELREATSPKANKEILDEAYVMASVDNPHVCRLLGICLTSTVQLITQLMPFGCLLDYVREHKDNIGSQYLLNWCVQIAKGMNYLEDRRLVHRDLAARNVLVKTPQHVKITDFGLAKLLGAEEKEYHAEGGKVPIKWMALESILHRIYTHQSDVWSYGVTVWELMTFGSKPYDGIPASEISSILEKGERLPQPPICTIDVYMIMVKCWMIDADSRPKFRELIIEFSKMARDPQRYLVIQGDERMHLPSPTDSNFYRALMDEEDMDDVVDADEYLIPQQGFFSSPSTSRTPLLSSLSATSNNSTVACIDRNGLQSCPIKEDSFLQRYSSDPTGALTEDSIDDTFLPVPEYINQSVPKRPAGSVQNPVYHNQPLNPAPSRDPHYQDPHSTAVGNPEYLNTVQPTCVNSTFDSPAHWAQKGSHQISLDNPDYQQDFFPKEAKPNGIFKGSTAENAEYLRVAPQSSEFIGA
# Method: as §1
# [8] = tested on: OVCAR-3 cells; assay: MTT assay OVCAR-3; type: cell-based; settings: Homo sapiens, 24h of treatment, mean ± SD
# Method: as §2, §3
# [9] = tested on: FVB mice; assay: Toxicity test in FVB mice; type: in vivo; settings: 3 weeks
# Method: Blood was collected from euthanized mice under isoflurane-induced deep anesthesia by cardiac puncture. After allowing blood coagulation at 4 °C, serum was collected by centrifugation at 3000 rpm for 10 min at 4 °C. Analysis of the level of ALT, AST, Glu and CRE in the serum was performed using a veterinary hematology analyzer (Fuji DRI-Chem 3500 s, Fujifilm, Tokyo, Japan) according to the manufacturer’s provided protocols. The histopathological changes in liver, lung, brain, and kidney were evaluated by using HE-stained section of the tissues (This part of the results is in the supplementary document).
# Tissues were fixed in 10% neutral-buffered formalin for 24 h, embedded in paraffin, cut into 4-μm-thick sections, deparaffinized with xylene and processed with a graded ethanol series. Next, the sections were stained with HE and were observed using Eclipse Ts2 microscope (Nikon).
# [10] = tested on: SGC7901 cells; assay: MTT assay SGC7901; type: cell-based; settings: Homo sapiens, SGC-7901, 24h of treatment, mean ± SD
# Method: as §2, §3
smiles,measurement,setting,value
"O=C(Nc1cccc(Cl)c1)Nc1ccccc1NS(=O)(=O)c1c[nH]c(=O)[nH]c1=O [Compound L14e, N'-(3-chlorophenyl)-2-(2,4-dihydroxypyrimidine-5-sulfonamido)phenyl urea]",HPLC-UV Measure Concentration,"[1]; nominal 0.625 µM, 1h",0.621 ± 0.005 µM
same,HPLC-UV Measure Concentration,"[1]; nominal 0.625 µM, 12h",0.623 ± 0.001 µM
same,HPLC-UV Measure Concentration,"[1]; nominal 0.625 µM, 24h",0.625 ± 0.002 µM
same,HPLC-UV Measure Concentration,"[1]; nominal 0.625 µM, 36h",0.625 ± 0.001 µM
same,HPLC-UV Measure Concentration,"[1]; nominal 1.25 µM, 1h",1.246 ± 0.005 µM
same,HPLC-UV Measure Concentration,"[1]; nominal 1.25 µM, 12h",1.239 ± 0.003 µM
same,HPLC-UV Measure Concentration,"[1]; nominal 1.25 µM, 24h",1.253 ± 0.007 µM
same,HPLC-UV Measure Concentration,"[1]; nominal 1.25 µM, 36h",1.242 ± 0.009 µM
same,HPLC-UV Measure Concentration,"[1]; nominal 2.5 µM, 1h",2.510 ± 0.020 µM
same,HPLC-UV Measure Concentration,"[1]; nominal 2.5 µM, 12h",2.506 ± 0.021 µM
same,HPLC-UV Measure Concentration,"[1]; nominal 2.5 µM, 24h",2.430 ± 0.002 µM
same,HPLC-UV Measure Concentration,"[1]; nominal 2.5 µM, 36h",2.483 ± 0.050 µM
same,HPLC-UV Measure Concentration,"[1]; nominal 5 µM, 1h",5.001 ± 0.010 µM
same,HPLC-UV Measure Concentration,"[1]; nominal 5 µM, 12h",4.963 ± 0.005 µM
same,HPLC-UV Measure Concentration,"[1]; nominal 5 µM, 24h",5.012 ± 0.023 µM
same,HPLC-UV Measure Concentration,"[1]; nominal 5 µM, 36h",4.980 ± 0.020 µM
same,HPLC-UV Measure Concentration,"[1]; nominal 10 µM, 1h",10.000 ± 0.049 µM
same,HPLC-UV Measure Concentration,"[1]; nominal 10 µM, 12h",9.908 ± 0.100 µM
same,HPLC-UV Measure Concentration,"[1]; nominal 10 µM, 24h",9.930 ± 0.100 µM
same,HPLC-UV Measure Concentration,"[1]; nominal 10 µM, 36h",9.850 ± 0.150 µM
same,IC50,[2],1090 nM
same,IC50,[3],2600 ± 80 nM
same,effect on cell cycle,[4],arrest the cell cycle in the G1/S phase
same,effect on cell cycle,[5],arrest the cell cycle in the G1/S phase
same,SI (Selectivity index) HPAEpiC,[6],19.79
same,IC50,[7],1920 nM
same,IC50,[8],1680 ± 310 nM
same,changes in body weight compared with control mice,"[9]; FVB mice, 40, 80, 160 mg/kg",minimal
same,"serum levels of AST, ALT, GLU and creatinine","[9]; FVB mice, 40, 80, 160 mg/kg",within the reference ranges
same,toxicity to mice (overall),"[9]; FVB mice, 40, 80, 160 mg/kg",minimal toxicity
same,"histopathological changes in liver, lung, brain, and kidney (HE staining)",[9]; mice,no visible pathological changes
same,IC50,[10],1950 ± 150 nM
